Data on 3 molecules can be found in PubChem BioAssay (NCI).

Some test systems named below: P388/ADR leukemia; KM20L2 colon; DLD-1 colon; M19-MEL melanoma; SN12K1 renal; P388 leukemia; XF 498 CNS; RXF-631 renal; LXFL 529 NSCLC; DMS 273 small cell lung.
Test in all cases: NCI tumour cell line growth inhibition, 48 h

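Briefly, cells in 96-well plates were exposed to five compound concentrations for 48 h, and endpoints were estimated by linear interpolation. TGI denotes the concentration required for complete inhibition of growth.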

Take `COc1cc(C2c3cc4c(cc3[C@@H](Nc3ccc(Oc5ccccc5)cc3)C3COC(=O)[C@H]23)OCO4)cc(OC)c1O` (stereo partly specified): the TGI is 3.49 µM in the experiment with P388/ADR leukemia; over 24.3 µM in the experiment with KM20L2 colon; over 100 µM in the experiment on DLD-1 colon; over 100 µM in the experiment with M19-MEL melanoma; over 100 µM in the experiment with SN12K1 renal; 1.88 µM in the experiment on P388 leukemia. This molecule gave a TGI in the experiment on XF 498 CNS of over 59.8 µM.

On to `Nc1nnc(CCC(=O)Nc2cc(Cl)ccc2Cl)n1N`, for which the TGI with RXF-631 renal, with LXFL 529 NSCLC, with KM20L2 colon, with DLD-1 colon, in the experiment with M19-MEL melanoma and in the experiment with DMS 273 small cell lung was over 100 µM each time. For the same molecule, the TGI with XF 498 CNS is over 100 µM.

As for `Cn1c2[n+](c3nc(N)[nH]c(=O)c31)C1OC(C2)C(O)C1O` (stereo unspecified), the TGI with RXF-631 renal, in the experiment with LXFL 529 NSCLC, in the experiment with KM20L2 colon, in the experiment with DLD-1 colon, in the experiment on M19-MEL melanoma and with DMS 273 small cell lung was over 100 µM each time. The same molecule had a TGI in the experiment on XF 498 CNS of over 100 µM.
